Like-named read-outs stand apart in the source and are kept apart here.
Target: T1, mTLR9 (Mus musculus, UniProt Q9EQU3)
T1 construct: Splenocytes isolated from male C57/BL6 mice; from tissue; host or cells: splenocytes from the spleen of male C57BL/6 mice
T1 sequence (Q9EQU3 26-1032): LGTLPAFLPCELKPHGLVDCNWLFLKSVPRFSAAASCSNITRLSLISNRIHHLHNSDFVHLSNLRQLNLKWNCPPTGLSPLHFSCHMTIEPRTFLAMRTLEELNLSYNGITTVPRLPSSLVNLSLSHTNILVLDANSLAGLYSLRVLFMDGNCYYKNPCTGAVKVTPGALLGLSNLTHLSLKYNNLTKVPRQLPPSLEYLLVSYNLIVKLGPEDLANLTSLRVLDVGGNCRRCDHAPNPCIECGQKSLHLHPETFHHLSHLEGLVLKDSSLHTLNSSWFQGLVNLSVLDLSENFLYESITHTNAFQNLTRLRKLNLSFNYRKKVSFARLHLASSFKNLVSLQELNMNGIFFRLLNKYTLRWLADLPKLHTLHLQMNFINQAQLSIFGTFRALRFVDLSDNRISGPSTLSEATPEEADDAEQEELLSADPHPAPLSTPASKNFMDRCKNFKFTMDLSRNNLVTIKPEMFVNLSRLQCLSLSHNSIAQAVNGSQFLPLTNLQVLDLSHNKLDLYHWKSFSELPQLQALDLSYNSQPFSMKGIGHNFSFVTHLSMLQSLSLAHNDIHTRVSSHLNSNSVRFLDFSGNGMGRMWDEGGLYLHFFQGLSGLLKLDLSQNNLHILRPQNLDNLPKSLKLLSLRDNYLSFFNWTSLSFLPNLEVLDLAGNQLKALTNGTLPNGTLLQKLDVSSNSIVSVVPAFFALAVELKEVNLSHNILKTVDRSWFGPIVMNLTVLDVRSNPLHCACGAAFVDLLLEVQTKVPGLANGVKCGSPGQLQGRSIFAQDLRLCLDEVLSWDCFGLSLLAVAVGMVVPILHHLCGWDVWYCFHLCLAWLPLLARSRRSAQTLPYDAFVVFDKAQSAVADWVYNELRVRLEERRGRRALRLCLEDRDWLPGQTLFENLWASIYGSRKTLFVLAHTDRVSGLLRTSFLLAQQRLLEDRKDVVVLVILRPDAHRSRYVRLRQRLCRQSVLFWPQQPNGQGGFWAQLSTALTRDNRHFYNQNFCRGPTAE
Experiment: mTLR9 antagonism (IL-6 and TNF-α release assay) in mouse splenocytes, CpG ODN-2006 stimulated
Type: cell-based
Settings: 1 μM, mouse splenocytes
Source text: mTLR9 and mTLR7 Antagonism (Cytokine Release Assay) in Mouse Splenocytes
TLR7 ligand R0006 (IDT, 5′-rU*rU*rG*rU*rU*rG*rU*rU*rG*rU*rU*rG*rU*rU*rG*rU*rU*rG*rU*rU-3′ (SEQ ID NO:1)), Liposomal transfection reagent—DOTAP (Roche, Cat. No. 11202375001), TLR9 ligand CpG ODN2006 (Sequence: T*C*G*T*C*G*T*T*T*T*G*T*C*G*T*T*T*T*G*T*C*G*T*T; *=phosphorothioate (SEQ ID NO:2)) DMSO (Sigma, D2650), RPMI Powder (Sigma, R6504), Fetal Bovine Serum (Gibco, 10270), Dulbecco's Phosphate Buffered Saline (Sigma, D1408), 96 well plate (Flat bottom, Costar 3599), ELISA kit for IL-6 (EBioscience, 88-7064-77 and TNFa (EBioscience, 88-7346-88), MACS Buffer (AutoMACS Rinsing Solution (Miltenyl Biotec, 130-091-222)+0.05% BSA), RBC lysis buffer (0.85% NH4Cl), 40 μm cell strainer (BD Falcon, 352340) Method: A. Isolation of Mouse Splenocytes
Mouse spleen was isolated from C57BL6 mouse and stored in 1× chilled PBS buffer until further processed. Spleen was transferred to a sterile petriplate and chopped in to 5-6 pieces in presence of MACS buffer (100 μl) with the help of fresh surgical blade and crushed with flat plunger of a sterile syringe. A uniform suspension was prepared by passing cells through a 40 μm cell strainer. Cells were centrifuged at 450×g for 5 minutes at 4° C., supernatant was discarded and pellet dislodged gently, resuspended in 2 ml of pre-warmed (37° C.) RBC lysis buffer at room temperature with continuous gentle mixing with 1 ml pipette. Lysis buffer was neutralized with 12 ml of chilled MACS buffer and cells were passed through 40 μm cell strainer. Cell suspension was collected in 15 ml MACS buffer and centrifuged at 450×g for 5 minutes at 4° C. Pellet was resuspended in 15 ml MACS buffer and centrifuged at 400×g for 5 minutes. Cells were resuspended in 10 ml of RPMI complete medium and viability was estimated by Trypan blue method.
mTLR9 Antagonism (IL-6 and TNF-α Release Assay):
500 μM stock of CpG ODN-2006 was prepared in sterile, endotoxin-free water. Dilutions of 10× concentrations of NCEs were prepared in incomplete RPMI media, maintaining a final DMSO concentration of 0.3%. NCEs were added in a concentration range of 30 μM to 1 nM in respective wells of assay plate, assay medium containing 0.3% DMSO were added to control wells. 0.2 million splenocytes were added to all the wells and incubated at 37° C. in 5% CO2 incubator for 30 minutes. 1 μg/ml of respective agonist was added to all the wells except those were assigned as negative controls and mixed thoroughly. Incomplete RPMI was added to negative control wells and incubated overnight at 37° C./5% CO2. The plate was centrifuged at 450×g for 5 minutes at room temperature and the supernatant was collected. ELISA was performed as per manufacturer's protocol. S/B Ratio, % Activity and % Inhibition was calculated using MS Excel. IC50 and inhibition curve was generated using Graph Pad Prism.

[1] = IL-6 release, read-out: mTLR9 inhibitory activity (% at 1 μM), IL-6
[2] = TNF-α release, read-out: mTLR9 inhibitory activity (% at 1 μM), TNF-α

Structure (SMILES)	inhibition at 1 µM [1]	inhibition at 1 µM [2]
Cc1cc2[nH]c(CN3CCOCC3)cc2c(-c2ccc(N3CCN(C(C)C)CC3)cc2)n1 [Example A4, 4-[[4-[4-[4-isopropylpiperazin-1-yl)phenyl]-6-methyl-1H-pyrrolo[3,2-c]pyridin-2-yl]methyl] morpholine]	100%	100%
CC(C)N1CCN(c2ccc(-c3nccc4[nH]c(CN5CC(F)C5)cc34)cc2)CC1 [Example A16, 2-[(3-fluoroazetidin-1-yl)methyl]-4-[4-(4-isopropylpiperazin-1-yl)phenyl]-1H-pyrrolo[3,2-c]pyridine]	100%	100%
CC(C)N1CCC(c2ccc(-c3nccc4[nH]c(CN5CCOCC5)cc34)cn2)CC1 [Example A64, 4-[[4-[6-(1-isopropyl-4-piperidyl)-3-pyridyl]-1H-pyrrolo[3,2-c]pyridin-2-yl]methyl]morpholine]	25%	0%
Cc1cc2c(cc(CCN3CCOCC3)n2C)c(-c2ccc(C3CCN(C(C)C)CC3)cc2)n1 [Example B31, 4-[2-[4-[4-(1-isopropyl-4-piperidyl)phenyl]-1,6-dimethyl-pyrrolo[3,2-c]pyridin-2-yl]ethyl]morpholine]	100%	92%
CN1CCN(c2cccc(-c3nccc4[nH]c(CN5CCOCC5)cc34)c2)CC1 [Example A61, 4-[[4-[3-(4-methylpiperazin-1-yl)phenyl]-1H-pyrrolo[3,2-c]pyridin-2-yl]methyl]morpholine]	100%	45%
Cc1nc(-c2ccc(N3CCN(C(C)C)CC3)cc2)c2cc(CCN3CCCC3)[nH]c2c1C [Example B10, 4-[4-(4-isopropylpiperazin-1-yl)phenyl]-6,7-dimethyl-2-(2-pyrrolidin-1-ylethyl)-1H-pyrrolo[3,2-c]pyridine]	100%	100%
CC(C)N1CCN(c2ccc(-c3nccc4[nH]c(CCN5CCOCC5)cc34)cc2)CC1 [Example B1, 4-[2-[4-[4-(4-isopropylpiperazin-1-yl)phenyl]-1H-pyrrolo[3,2-c]pyridin-2-yl]ethyl]morpholine]	100%	100%
COc1cc(-c2nc(C)cc3c2cc(CCN2CCOCC2)n3C)ccc1N1CCN(C(C)C)CC1 [Example B22, 4-[2-[4-[4-(4-isopropylpiperazin-1-yl)-3-methoxy-phenyl]-1,6-dimethyl-pyrrolo[3,2-c]pyridin-2-yl]ethyl]morpholine]	100%	92%
CCN1CCN(c2ccc(-c3nccc4[nH]c(CN5CCOCC5)cc34)cc2)CC1 [Example A3, 4-[[4-[4-(4-ethylpiperazin-1-yl)phenyl]-1H-pyrrolo[3,2-c]pyridin-2-yl]methyl] morpholine]	100%	85%
CN1CCN(c2ccc(-c3nccc4[nH]c(CN5CCOCC5)cc34)cc2)CC1 [Example A2, 4-[[4-[4-(4-methylpiperazin-1-yl)phenyl]-1H-pyrrolo[3,2-c]pyridin-2-yl]methyl] morpholine]	100%	94%
CC(C)N1CCN(c2ccc(-c3nccc4[nH]c(CCCN5CCOCC5)cc34)cc2)CC1 [Example C1, 4-[3-[4-[4-(4-isopropylpiperazin-1-yl)phenyl]-1H-pyrrolo[3,2-c]pyridin-2-yl]propyl]morpholine]		100%
Cc1nc(-c2ccc(N3CCN(C(C)C)CC3)cc2)c2cc(CN3CCOCC3)[nH]c2c1C [Example A36, 4-[[4-[4-(4-isopropylpiperazin-1-yl)phenyl]-6,7-dimethyl-1H-pyrrolo[3,2-c]pyridin-2-yl]methyl] morpholine]		100%
CC(C)N1CCN(c2ccc(-c3nccc4[nH]c(CN5CCCCC5)cc34)cc2)CC1 [Example A17, 4-[4-(4-isopropylpiperazin-1-yl)phenyl]-2-(1-piperidylmethyl)-1H-pyrrolo[3,2-c]pyridine]	100%	100%
Cc1cc2[nH]c(CN3CCC4(CC3)CC(C)C4)cc2c(-c2ccc(N3CCN(C(C)C)CC3)cc2)n1 [Example A30, 4-[4-(4-isopropylpiperazin-1-yl)phenyl]-6-methyl-2-[(2-methyl-7-azaspiro[3.5]nonan-7-yl)methyl]-1H-pyrrolo[3,2-c]pyridine]	100%	100%
Cc1cc2[nH]c(CN3CCC4(CC3)CC(O)C4)cc2c(-c2ccc(N3CCN(C(C)C)CC3)cc2)n1 [Example A29, 7-[[4-[4-(4-isopropylpiperazin-1-yl)phenyl]-6-methyl-1H-pyrrolo[3,2-c]pyridin-2-yl]methyl]-7-azaspiro[3.5] nonan-2-ol]	96%	64%
CN1CCN(c2ccc(-c3nc(C4CC4)cc4[nH]c(CN5CCOCC5)cc34)cc2)CC1 [Example A34, 4-[[6-cyclopropyl-4-[4-(4-methylpiperazin-1-yl)phenyl]-1H-pyrrolo[3,2-c]pyridin-2-yl]methyl] morpholine]		93%
c1cc2[nH]c(CN3CCOCC3)cc2c(-c2ccc(N3CCN(C4COC4)CC3)cc2)n1 [Example A81, 4-[[4-[4-[4-(oxetan-3-yl)piperazin-1-yl]phenyl]-1H-pyrrolo[3,2-c]pyridin-2-yl]methyl]morpholine]	37%	20%
CN1CCN(c2ccc(-c3nccc4c3cc(CN3CCOCC3)n4C)cc2)CC1 [Example A9, 4-[[1-methyl-4-[4-(4-methylpiperazin-1-yl)phenyl]pyrrolo[3,2-c]pyridin-2-yl]methyl] morpholine]		94%
CN1CCN(Cc2ccc(-c3nccc4[nH]c(CN5CCOCC5)cc34)cc2)CC1 [Example A60, 4-[[4-[4-[(4-methylpiperazin-1-yl)methyl]phenyl]-1H-pyrrolo[3,2-c]pyridin-2-yl]methyl]morpholine]	0%	38%
CC(C)N1CCN(c2ccc(-c3nccc4c3cc(CN3CCOCC3)n4C)cc2)CC1 [Example A8, 4-[[4-[4-(4-isopropylpiperazin-1-yl)phenyl]-1-methyl-pyrrolo[3,2-c]pyridin-2-yl]methyl] morpholine]		100%

From US9643967B2, “Pyrrolo[3,2-c]pyridine derivatives as TLR inhibitors” (TAKEDA PHARMACEUTICAL COMPANY LIMITED, priority 2013, dated 2017)
